According to patent US8258134B2, “Pyridazinone glucokinase activators” (Hoffmann-La Roche Inc., priority 2008, dated 2012):

What was measured:
[1] = target: T1, Recombinant human liver GK1 (GST-GK) (Homo sapiens, UniProt P35557); assay: Glucokinase in vitro assay (G6PDH-coupled NADH generation, OD340); format: biochemical; conditions: 5 mM D-glucose; for SC1.5 average (concentration of activator that produced a 50% increase in the activity of GK): 30° C., pH 7.1, 10% DMSO; for fold activation @ 30 uM: 30 uM test compound
T1 construct: made in house; host or cells: E. coli
T1 sequence (P35557 1-466 isoform P35557-2): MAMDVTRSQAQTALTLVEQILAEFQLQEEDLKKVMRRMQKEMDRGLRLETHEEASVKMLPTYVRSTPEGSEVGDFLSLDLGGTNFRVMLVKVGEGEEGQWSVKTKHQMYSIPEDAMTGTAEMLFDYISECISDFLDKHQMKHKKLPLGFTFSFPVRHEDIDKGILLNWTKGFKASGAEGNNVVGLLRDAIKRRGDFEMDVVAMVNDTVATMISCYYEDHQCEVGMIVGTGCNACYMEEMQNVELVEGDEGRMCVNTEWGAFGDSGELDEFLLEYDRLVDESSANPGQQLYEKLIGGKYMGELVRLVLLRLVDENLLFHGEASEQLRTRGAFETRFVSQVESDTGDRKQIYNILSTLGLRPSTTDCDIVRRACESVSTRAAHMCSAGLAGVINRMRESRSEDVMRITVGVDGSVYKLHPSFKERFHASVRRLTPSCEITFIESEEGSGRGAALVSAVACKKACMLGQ
Summary of the method: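 Activation readout is SC1.5, the activator concentration raising GK rate (OD340/min) 50% above 10% DMSO controls. The coupled reaction used GST-GK1 from E. coli, 5 mM glucose, 1 mM ATP, 1.8 mM NAD and 25 mM Hepes pH 7.1 at 30° C. Enzyme was added after a 10 min compound pre-incubation.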

Lean C57BL/6J mice = assay: Glucokinase activator in vivo screen, blood glucose in lean mice; conditions: Mus musculus, vs control at 4 hours post 50 mg/kg oral dose, two hour fast, read-out: % glucose lowering @ 4 H
Method: Glucokinase Activator in vivo Screen Protocol in Lean and Diet Induced Obese Mice: Lean or Diet-induced Obese (DIO) C57BL/6J mice were orally dosed via gavage with Glucokinase (GK) activator following a two hour fasting period. Blood glucose determinations were made at various (e.g. 0, 1, 2, 4 and 8 hours post-oral gavage) times during the study.
C57Bl/6J mice were obtained from Jackson Laboratory (Bar Harbor, Me.) and were maintained in a light-dark cycle with lights on from 0600-1800 hr. For studies in lean mice, the mice were received at age ten weeks and given ad libitum access to control diet (LabDiet 5001 chow, PMI Nutrition, Brentwood, Mo.), and were at least age 11 weeks at the time of study. For studies in the DIO model, the mice were received at age five weeks and given ad libitum access to Bio-Serv F3282 High Fat Diet (Frenchtown, N.J.), and were at least age 16 weeks at the time of study. The experiments were conducted during the light phase of the light-dark cycle. Mice (n=6) are weighed and fasted for a two hour period prior to oral treatment. GK activators are formulated in Gelucire vehicle (Ethanol:Gelucire44/14:PEG400q.s. 4:66:30 v/w/v. For studies in lean mice, the mice were dosed orally with 5.0 μL per gram of body weight (i.e. 5 ml/kg×10.0 mg/ml formulation to equal a 50 mg/kg dose). For studies in DIO mice, the mice were dosed orally with 5.0 μL per gram of body weight (i.e. 5.0 ml/kg×5 mg/ml formulation to equal a 25 mg/kg dose). Immediately prior to dosing, a pre-dose (time zero) blood glucose reading was acquired by snipping off a small portion of the animal's tail and collecting 15 μL blood into a heparinized capillary tube for analysis. Following GK activator administration, additional blood glucose readings were taken at various time points post dose from the same tail wound. Results were interpreted by comparing the mean blood glucose values of vehicle treated mice with GK activator treated mice over the study period.
The Table below provides data for % glucose lowering of a representative number of compounds of the present invention vs control at 4 hours post 50 mg/kg dose in lean C57BL/6J mice: […]

Row | Structure (SMILES) | SC1.5 average (concentration of activator that produced a 50% increase in the activity of GK) [1] [µM] | fold activation @ 30 uM [1] [fold] | change in vivo at 50 mg/kg (Lean C57BL/6J mice) [%]
1 | O=C(Nc1nccs1)C(CC1CCCC1)n1ncc(Oc2ccccc2)cc1=O (stereo not shown) [Example 2, 3-Cyclopentyl-2-(6-oxo-4-phenoxy-6H-pyridazin-1-yl)-N-thiazol-2-yl-propionamide] | 0.206 | – | -41.9
2 | CC(C)(O)Cn1ccc(NC(=O)C(CC2CCCC2)n2ncc(OC3CCCC3)cc2=O)n1 (stereo not shown) [Example 8, 3-Cyclopentyl-2-(4-cyclopentyloxy-6-oxo-6H-pyridazin-1-yl)-N-[1-(2-hydroxy-2-methyl-propyl)-1H-pyrazol-3-yl]-propionamide] | 1.323 | – | -5.6
3 | CC(C)(O)Cn1ccc(NC(=O)C(CC2CCCC2)n2ncc(Oc3ccccc3C(F)(F)F)cc2=O)n1 (stereo not shown) [Example 11, 3-Cyclopentyl-N-[1-(2-hydroxy-2-methyl-propyl)-1H-pyrazol-3-yl]-2-[6-oxo-4-(2-trifluoromethyl-phenoxy)-6H-pyridazin-1-yl]-propionamide] | 0.206 | – | -48.9
4 | CC(C)(O)Cn1ccc(NC(=O)C(CC2CCCC2)n2ncc(Sc3ccccc3)cc2=O)n1 (stereo not shown) [Example 123, 3-Cyclopentyl-N-[1-(2-hydroxy-2-methyl-propyl)-1H-pyrazol-3-yl]-2-(6-oxo-4-phenylsulfanyl-6H-pyridazin-1-yl)-propionamide] | 0.441 | – | –
5 | CC(C)(O)Cn1ccc(NC(=O)C(CC2CCCC2)n2ncc([S+]([O-])c3ccccc3)cc2=O)n1 (stereo not shown) [Example 124, 2-(4-Benzenesulfinyl-6-oxo-6H-pyridazin-1-yl)-3-cyclopentyl-N-[1-(2-hydroxy-2-methyl-propyl)-1H-pyrazol-3-yl]-propionamide] | 2.461 | – | –
6 | CC(C)(O)Cn1ccc(NC(=O)C(CC2CCCC2)n2ncc(S(=O)(=O)c3ccccc3)cc2=O)n1 (stereo not shown) [Example 125, 2-(4-Benzenesulfonyl-6-oxo-6H-pyridazin-1-yl)-3-cyclopentyl-N-[1-(2-hydroxy-2-methyl-propyl)-1H-pyrazol-3-yl]-propionamide] | 2.611 | – | –
7 | CC(C)(O)Cn1ccc(NC(=O)C(CC2CCOCC2)n2ncc(Oc3ccccc3Cl)c(Cl)c2=O)n1 (stereo not shown) [Example 129, 2-[5-Chloro-4-(2-chloro-phenoxy)-6-oxo-6H-pyridazin-1-yl]-N-[1-(2-hydroxy-2-methyl-propyl)-1H-pyrazol-3-yl]-3-(tetrahydro-pyran-4-yl)-propionamide] | 1.006 | – | –
8 | CC(C)(O)Cn1ccc(NC(=O)C(CC2CCCCC2)n2ncc(Oc3ccc(OC(F)(F)F)cc3Cl)c(Cl)c2=O)n1 (stereo not shown) [Example 130, 2-[5-Chloro-4-(2-chloro-4-trifluoromethoxy-phenoxy)-6-oxo-6H-pyridazin-1-yl]-3-cyclohexyl-N-[1-(2-hydroxy-2-methyl-propyl)-1H-pyrazol-3-yl]-propionamide] | 10.224 | – | –
9 | CC(=O)OC(C)Cn1nc(NC(=O)C(CC2CCOCC2)n2ncc(Oc3c(F)cccc3F)cc2=O)cc1C (stereo not shown) [Example 131, Acetic acid 2-{3-[2-[4-(2,6-difluoro-phenoxy)-6-oxo-6H-pyridazin-1-yl]-3-(tetrahydro-pyran-4-yl)-propionylamino]-5-methyl-pyrazol-1-yl}-1-methyl-ethyl ester] | > 30 | 1.18 | –
10 | Cc1cc(NC(=O)C(CC2CCOCC2)n2ncc(Oc3c(F)cccc3F)cc2=O)nn1CC(C)O (stereo not shown) [Example 132, 2-[4-(2,6-Difluoro-phenoxy)-6-oxo-6H-pyridazin-1-yl]-N-[1-(2-hydroxy-propyl)-5-methyl-1H-pyrazol-3-yl]-3-(tetrahydro-pyran-4-yl)-propionamide] | > 30 | 1.18 | –
11 | CC(C)(O)Cn1ccc(NC(=O)C(CC2CCCCC2)n2ncc(Oc3cccc4c3OCCO4)cc2=O)n1 (stereo not shown) [Example 133, 3-Cyclohexyl-2-[4-(2,3-dihydro-benzo[1,4]dioxin-5-yloxy)-6-oxo-6H-pyridazin-1-yl]-N-[1-(2-hydroxy-2-methyl-propyl)-1H-pyrazol-3-yl]-propionamide] | 0.135 | – | –
12 | CC(C)(O)Cn1ccc(NC(=O)C(CC2CCOCC2)n2ncc(Oc3ccccc3Cl)cc2=O)n1 (stereo not shown) [Example 135, 2-[4-(2-Chloro-phenoxy)-6-oxo-6H-pyridazin-1-yl]-N-[1-(2-hydroxy-2-methyl-propyl)-1H-pyrazol-3-yl]-3-(tetrahydro-pyran-4-yl)-propionamide] | 0.235 | – | –
13 | CC(C)(O)Cn1ccc(NC(=O)C(CC2CCCCC2)n2ncc(Oc3ccccc3)c(Cl)c2=O)n1 (stereo not shown) [Example 136, 2-(5-Chloro-6-oxo-4-phenoxy-6H-pyridazin-1-yl)-3-cyclohexyl-N-[1-(2-hydroxy-2-methyl-propyl)-1H-pyrazol-3-yl]-propionamide] | 1.17 | – | –

Further lines, with some results ahead:

Row | SC1.5 average (concentration of activator that produced a 50% increase in the activity of GK) [1] [µM] | fold activation @ 30 uM [1] [fold] | Structure (SMILES) | change in vivo at 50 mg/kg (Lean C57BL/6J mice) [%]
14 | > 30 | 1.36 | CC(C)CC(C(=O)Nc1ccn(C[C@@H](O)CO)n1)n1ncc(Nc2ccccc2Cl)cc1=O (stereo partly drawn) [Example 122, 2-[4-(2-Chloro-phenylamino)-6-oxo-6H-pyridazin-1-yl]-4-methyl-pentanoic acid [1-((R)-2,3-dihydroxy-propyl)-1H-pyrazol-3-yl]-amide] | –
15 | 1.221 | – | CC(C)CC(C(=O)Nc1ccn(C[C@@H](O)CO)n1)n1ncc(Oc2cccc(C(F)(F)F)c2Cl)cc1=O (stereo partly drawn) [Example 126, 2-[4-(2-Chloro-3-trifluoromethyl-phenoxy)-6-oxo-6H-pyridazin-1-yl]-4-methyl-pentanoic acid [1-((R)-2,3-dihydroxy-propyl)-1H-pyrazol-3-yl]-amide] | –
16 | 0.334 | – | COc1cccc(Oc2cnn(C(CC(C)C)C(=O)Nc3ccn(C[C@@H](O)CO)n3)c(=O)c2)c1Cl (stereo partly drawn) [Example 127, 2-[4-(2-Chloro-3-methoxy-phenoxy)-6-oxo-6H-pyridazin-1-yl]-4-methyl-pentanoic acid [1-((R)-2,3-dihydroxy-propyl)-1H-pyrazol-3-yl]-amide] | –
17 | 0.093 | – | O=C(Nc1ccn(C[C@@H](O)CO)n1)C(CC1CCCC1)n1ncc(Oc2ccccc2Cl)cc1=O (stereo partly drawn) [Example 128, 2-[4-(2-Chloro-phenoxy)-6-oxo-6H-pyridazin-1-yl]-3-cyclopentyl-N-[1-((R)-2,3-dihydroxy-propyl)-1H-pyrazol-3-yl]-propionamide] | –
18 | 0.693 | – | CC(C)CC(C(=O)Nc1ccn(CC(C)(C)O)n1)n1ncc(Oc2ccccc2Cl)cc1=O (stereo not shown) [Example 134, 2-[4-(2-Chloro-phenoxy)-6-oxo-6H-pyridazin-1-yl]-4-methyl-pentanoic acid [1-(2-hydroxy-2-methyl-propyl)-1H-pyrazol-3-yl]-amide] | –
19 | 0.731 | – | CC(C)CC(C(=O)Nc1ccn(C[C@@H](O)CO)n1)n1ncc(Oc2ccccc2Cl)cc1=O (stereo partly drawn) [Example 137, 2-[4-(2-Chloro-phenoxy)-6-oxo-6H-pyridazin-1-yl]-4-methyl-pentanoic acid [1-((R)-2,3-dihydroxy-propyl)-1H-pyrazol-3-yl]-amide] | –
